# According to patent US20060167109A1, “Methods of reducing rhinovirus contagion and related compositions” (priority 2002, published 2006):
# Experiments:
# [1] = tested on: mumps virus, strain Enders (Mumps); experiment: Virus cytopathic effect assay for other viruses; assay type: cell-based; settings: Mumps orthorubulavirus
# Procedure: (§1) The sensitivity of non-picornaviruses to pleconaril was determined in virus cytopathic effect assays similar to the HRV assay for the following viruses: respiratory syncytial virus, strain Long (RSV-A) and herpes simplex virus type II, strain Curtis (HSV-2) on HEp2 cells; influenza virus, strain WSN (FLUA) on MDBK cells; dengue virus type 2, strain New Guinea (DEN-2), and measles virus, strain Edmonston (MeV) on Vero cells; human adenovirus, type 5 (HAdV-5) on HeLa cells (at 33° C.); human coronavirus, strain 229E (Corona) on MRC-5 cells (at 33° C.); and mumps virus, strain Enders (Mumps), reovirus type 1, strain Lang (REOV-1), and parainfluenza virus type 3, strain C243 (HPIV-3) on LLC-MK2d cells. All specificity assays were performed at 37° C. and 5% CO2 except where noted above.
# [2] = tested on: dengue virus type 2, strain New Guinea (DEN-2); experiment: Virus cytopathic effect assay for other viruses; assay type: cell-based; settings: Vero
# Procedure: as §1
# [3] = tested on: herpes simplex virus type II, strain Curtis (HSV-2); experiment: Virus cytopathic effect assay for other viruses; assay type: cell-based; settings: Human alphaherpesvirus 2, HEp-2
# Procedure: as §1
# [4] = tested on: human coronavirus, strain 229E (Corona); experiment: Virus cytopathic effect assay for other viruses; assay type: cell-based; settings: Human coronavirus 229E, MRC5; Corona on MRC-5 cells at 33° C.
# Procedure: as §1
# [5] = tested on: respiratory syncytial virus, strain Long (RSV-A); experiment: Virus cytopathic effect assay for other viruses; assay type: cell-based; settings: human respiratory syncytial virus, HEp-2
# Procedure: as §1
# [6] = tested on: reovirus type 1, strain Lang (REOV-1); experiment: Virus cytopathic effect assay for other viruses; assay type: cell-based; settings: Mammalian orthoreovirus 1
# Procedure: as §1
# [7] = tested on: measles virus, strain Edmonston (MeV); experiment: Virus cytopathic effect assay for other viruses; assay type: cell-based; settings: Measles morbillivirus, Vero
# Procedure: as §1
# [8] = tested on: parainfluenza virus type 3, strain C243 (HPIV-3); experiment: Virus cytopathic effect assay for other viruses; assay type: cell-based; settings: Human respirovirus 3
# Procedure: as §1
# [9] = tested on: influenza virus, strain WSN (FLUA); experiment: Virus cytopathic effect assay for other viruses; assay type: cell-based; settings: unidentified influenza virus, MDBK
# Procedure: as §1
# HRV serotype 3 = experiment: Reversibility of pleconaril binding; assay type: cell-based, human rhinovirus
# Procedure: (§2) The first question presented is whether pleconaril could bind to human rhinoviruses irreversibly. Various HRVs were incubated overnight at 4° C. with pleconaril at a concentration approximately 10 times the IC50 value. Parallel samples were incubated in medium with 0.5% dimethyl sulfoxide (DMSO) alone. The next day, samples were diluted 10,000-fold into pleconaril-free medium and incubated an additional 24 hrs at 4° C., followed by titration by plaque assay.
# (§3) After 24 hours, virus samples were diluted 10,000-fold in culture medium and incubated an additional 24 hours at 4° C. Virus titers in the DMSO- and pleconaril-treated samples were then determined by plaque assay in the appropriate cell line as described below.
# (§4) In some experiments, virus titers were determined by plaque assay. Cells in 6 well plates were infected with 1 mL of 10-fold dilutions of virus in duplicate for 1 hour at the appropriate incubation temperature. The inoculum was then removed and the cells were overlaid with 3 mL of agarose overlay medium (Eagles minimum essential medium (Life Technologies, Grand Island, N.Y.) with 50 mM Hepes buffer, pH 7.2, 5% FBS, antibiotics, and 1.5% SeaPlaque (HRVs)). The HRV overlay medium was further supplemented with 30 mM MgCl2 and 15 μg/mL DEAE dextran. […] After rinsing and drying, plaques were read manually.
# HRV serotype 50 = experiment: Reversibility of pleconaril binding; assay type: cell-based, human rhinovirus
# Procedure: as §2, §3, §4
# HRV serotype 89 = experiment: Reversibility of pleconaril binding; assay type: cell-based, human rhinovirus
# Procedure: as §2, §3, §4
# HRV serotype 2 = experiment: Reversibility of pleconaril binding; assay type: cell-based, human rhinovirus
# Procedure: as §2, §3, §4
# HRV serotype 5 = experiment: Reversibility of pleconaril binding; assay type: cell-based, human rhinovirus; settings: about 10 times IC50, then diluted 10,000-fold, plaque assay
# Procedure: as §2, §3, §4
# HRV serotype 14 = experiment: Reversibility of pleconaril binding; assay type: cell-based, human rhinovirus
# Procedure: as §2, §3, §4
# HRV serotype 1A = experiment: Reversibility of pleconaril binding; assay type: cell-based, human rhinovirus
# Procedure: as §2, §3, §4
# HRV3 = experiment: Multiple rounds of replication; assay type: cell-based, human rhinovirus; settings: 2 μM added four hours post-attachment
# Procedure: The next experiments were designed to answer the question as to whether the addition of pleconaril after the uncoating stage could affect the ability of progeny virions to initiate subsequent rounds of replication, i.e. reduce the infectivity of progeny virions. Cells were infected with HRV3 at a low MOI (0.01 pfu/cell) at room temperature. After removal of unattached virus, fresh medium was added and the cells were shifted to the higher temperature to allow uncoating to proceed. Four hours post-attachment, pleconaril or DMSO alone was added to the cultures, and plates were frozen at 12 hours (upon completion of a single cycle of replication) and 24 hours (upon completion of a second round of replication) post-infection. Virus yield from both rounds of replication was determined in the viral cytopathic effect assay.
# HeLa cells in 6 well plates were infected with HRV3 at an MOI of 0.001 or 0.01 pfu/cell for 1 hour at room temperature in duplicate. The virus inoculum was then removed and the monolayers washed twice with DPBS. The cells were overlaid with 3 mL of M199 medium with 5% FBS and placed at 33° C. (HRV3). After 4 hrs, half of the wells received pleconaril to a final concentration of 2 μM in 0.5% DMSO, and half received DMSO alone. […] Virus yield was determined in the cytopathic effect assay after 2 cycles of chloroform extraction.
smiles,measurement,setting,value
"Cc1cc(CCCOc2c(C)cc(-c3noc(C(F)(F)F)n3)cc2C)on1 [pleconaril, 3-[3,5-dimethyl-4-[3-(3-methyl-5-isoxazolyl)propoxy]phenyl]-5-(trifluoromethyl)-1,2,4-oxadiazole]",IC50,[1],> 12.5 µM
same,IC50,[2],> 12.5 µM
same,IC50,[3],> 12.5 µM
same,IC50,[4],> 12.5 µM
same,IC50,[5],> 12.5 µM
same,IC50,[6],> 12.5 µM
same,IC50,[7],> 12.5 µM
same,IC50,[8],> 12.5 µM
same,IC50,[9],> 12.5 µM
same,reversibility of binding to the virion,HRV serotype 3; HRV-3,reversible upon dilution
same,% Recovery of input infectious virus (% SD),"HRV serotype 3; serotype 3, about 10 times IC50, then diluted 10,000-fold, plaque assay",92.8 (40.4) %
same,reversibility of binding to the virion,HRV serotype 50; HRV serotype 50,binds irreversibly
same,% Recovery of input infectious virus (% SD),"HRV serotype 50; serotype 50, about 10 times IC50, then diluted 10,000-fold, plaque assay",11.9 (40) %
same,reversibility of binding to the virion,HRV serotype 89; HRV serotype 89,binds irreversibly
same,% Recovery of input infectious virus (% SD),"HRV serotype 89; serotype 89, about 10 times IC50, then diluted 10,000-fold, plaque assay",9.9 (100) %
same,reversibility of binding to the virion,HRV serotype 2; HRV-2,reversible upon dilution
same,% Recovery of input infectious virus (% SD),"HRV serotype 2; serotype 2, about 10 times IC50, then diluted 10,000-fold, plaque assay",65.8 (51.3) %
same,% Recovery of input infectious virus (% SD),HRV serotype 5,118 (53.5) %
same,reversibility of binding to the virion,HRV serotype 14; HRV serotype 14,binds irreversibly
same,% Recovery of input infectious virus (% SD),"HRV serotype 14; serotype 14, about 10 times IC50, then diluted 10,000-fold, plaque assay",16.4 (33.9) %
same,reversibility of binding to the virion,HRV serotype 1A; HRV-1A,reversible upon dilution
same,% Recovery of input infectious virus (% SD),"HRV serotype 1A; serotype 1A, about 10 times IC50, then diluted 10,000-fold, plaque assay",85.4 (52.8) %
same,yield of progeny virions from the first round of virus replication,HRV3; 12 hours,little effect
same,second round of replication,HRV3; 24 hours,completely prevented
